“Also recorded” adds a separate entry of the source. Like-named read-outs stand apart in the source and are kept apart here.
Assays:
[1] = molecular target: T1, CYP3A4 (Homo sapiens, UniProt P08684); experiment: Addition of CYP inhibitors: metabolism of Compound I; type: in vivo; conditions: observed in Phase I clinical trials
T1 construct: from tissue; host or cells: human subjects in vivo (endogenous enzyme)

[2] = Phase 1 Part A: single ascending dose PK of Compound I (75 mg HME tablet) in healthy subjects; type: in vivo, human; conditions: for AUC(0-t) / AUC(0-inf) / Cmax / half-life / Vd/F / CL/F / t1/2: geometric mean (CV %); for Vd/F: read-out: Vz/F; for Tmax: median (minimum-maximum)
Protocol: The 75 mg tablet formulation (described in Table 4) was made using the hot melt extrusion (HME) process described in this disclosure. This 75 mg tablet was used in human clinical studies (single-dose study in healthy volunteers) and (repeat-dose study in cancer patients). […] Following repeat dosing, the steady state exposure at the highest dose evaluated (900 mg BID), AUCt=68700 ng·hr/mL, approached the target efficacious exposure (Table 7).
(§1) A total of 40 adult subjects with a mean age of 37 years were enrolled. Part A enrolled subjects into four single dose cohorts of Compound I ranging from 150 to 900 mg, and the PK data were evaluated to select the most appropriate dose level to use in Part B (900 mg). […] All doses of each drug were administered in the fasted state. This study used an amorphous solid dispersion formulation of Compound I produced with a hot-melt extrusion (HME) process.

[3] = Phase 1 Part B: effect of CYP3A4 inhibitor cobicistat on PK of Compound I (HME) in healthy subjects; type: in vivo, human
Protocol: as §1

[4] = molecular target: cytochrome P450 enzyme (Homo sapiens, UniProt P08684); experiment: CYP reaction phenotyping analysis; type: in vitro ADME
[5] = Phase 1 Part B: effect of CYP3A4 inhibitor cobicistat on PK of Compound I (HME) in healthy subjects; type: in vivo, human; remark: listed apart in the source
[6] = human, in vivo, oral, single dose 150 mg, 75 mg HME tablet, fasted, N = 6
[7] = human, in vivo, oral, single dose 300 mg, 75 mg HME tablet, fasted, N = 5
[8] = human, in vivo, oral, single dose 450 mg, 75 mg HME tablet, fasted, N = 6
[9] = human, in vivo, oral, single dose 900 mg, 75 mg HME tablet, fasted, N = 6
[10] = single dose 150 mg, 75 mg HME tablet, fasted, N = 6
[11] = single dose 300 mg, 75 mg HME tablet, fasted, N = 5
[12] = single dose 450 mg, 75 mg HME tablet, fasted, N = 6
[13] = single dose 900 mg, 75 mg HME tablet, fasted, N = 6
[14] = 900 mg level, compared with Compound I administered alone
[15] = human, in vivo, oral, Compound I 900 mg single dose alone, Part B, HME, fasted, N = 10, geometric mean (% CV)
[16] = 300 mg level, compared with Compound I administered alone
[17] = human, in vivo, oral, Compound I 300 mg single dose alone, Part B, HME, fasted, N = 8, geometric mean (% CV)

cytochrome P450 enzyme, sequence (P08684 whole entry): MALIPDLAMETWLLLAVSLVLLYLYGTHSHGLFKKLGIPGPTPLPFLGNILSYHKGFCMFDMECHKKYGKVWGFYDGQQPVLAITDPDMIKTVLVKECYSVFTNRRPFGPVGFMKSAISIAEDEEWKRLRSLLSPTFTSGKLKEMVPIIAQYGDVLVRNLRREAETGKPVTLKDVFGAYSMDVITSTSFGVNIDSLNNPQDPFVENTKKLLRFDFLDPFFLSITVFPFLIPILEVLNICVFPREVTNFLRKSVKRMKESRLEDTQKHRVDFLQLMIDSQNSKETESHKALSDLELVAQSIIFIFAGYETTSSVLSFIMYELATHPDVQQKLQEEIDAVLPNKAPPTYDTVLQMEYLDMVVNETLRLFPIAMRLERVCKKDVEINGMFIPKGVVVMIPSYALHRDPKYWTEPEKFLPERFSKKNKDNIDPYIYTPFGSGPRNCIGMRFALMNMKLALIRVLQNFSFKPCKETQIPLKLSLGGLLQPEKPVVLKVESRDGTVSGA
T1 sequence (P08684 whole entry): as above

Compound: Nn1nnc2ccccc21 [ABT]
- effect of added CYP inhibitor on metabolism of Compound I [1]: blocked the metabolism of Compound I

Compound: O=C(c1c(F)ccc(NS(=O)(=O)N2CC[C@@H](F)C2)c1F)c1c[nH]c2ncc(-c3cnc(C4CC4)nc3)cc12 [Compound I, (R)-N-(3-(5-(2-cyclopropylpyrimidin-5-yl)-1H-pyrrolo[2,3-b]pyridine-3-carbonyl)-2,4-difluorophenyl)-3-fluoropyrrolidine-1-sulfonamide]
- AUC(0-t) ([2]; human, in vivo, oral, 150 mg, single dose 150 mg, 75 mg HME tablet, fasted, N = 6, read-out: AUC0-12): 7240 ng·h/mL
- AUC(0-t) ([2]; human, in vivo, oral, 150 mg, single dose 150 mg, 75 mg HME tablet, fasted, N = 6, read-out: AUC0-24): 7720 ng·h/mL
- AUC(0-t) ([2]; human, in vivo, oral, 150 mg, single dose 150 mg, 75 mg HME tablet, fasted, N = 6, read-out: AUC0-t): 7870 ng·h/mL
- AUC(0-t) ([2]; human, in vivo, oral, 300 mg, single dose 300 mg, 75 mg HME tablet, fasted, N = 5, read-out: AUC0-12): 12100 ng·h/mL
- AUC(0-t) ([2]; human, in vivo, oral, 300 mg, single dose 300 mg, 75 mg HME tablet, fasted, N = 5, read-out: AUC0-24): 12600 ng·h/mL
- AUC(0-t) ([2]; human, in vivo, oral, 300 mg, single dose 300 mg, 75 mg HME tablet, fasted, N = 5, read-out: AUC0-t): 12900 ng·h/mL
- AUC(0-t) ([2]; human, in vivo, oral, 450 mg, single dose 450 mg, 75 mg HME tablet, fasted, N = 6, read-out: AUC0-12): 21000 ng·h/mL
- AUC(0-t) ([2]; human, in vivo, oral, 450 mg, single dose 450 mg, 75 mg HME tablet, fasted, N = 6, read-out: AUC0-24): 21800 ng·h/mL
- AUC(0-t) ([2]; human, in vivo, oral, 450 mg, single dose 450 mg, 75 mg HME tablet, fasted, N = 6, read-out: AUC0-t): 22100 ng·h/mL
- AUC(0-t) ([2]; human, in vivo, oral, 900 mg, single dose 900 mg, 75 mg HME tablet, fasted, N = 6, read-out: AUC0-12): 37500 ng·h/mL
- AUC(0-t) ([2]; human, in vivo, oral, 900 mg, single dose 900 mg, 75 mg HME tablet, fasted, N = 6, read-out: AUC0-24): 39200 ng·h/mL
- AUC(0-t) ([2]; human, in vivo, oral, 900 mg, single dose 900 mg, 75 mg HME tablet, fasted, N = 6, read-out: AUC0-t): 40000 ng·h/mL
- AUC(0-inf) [2, 6]: 7610 ng·h/mL
- Cmax [2, 6]: 2070 ng/mL
- half-life [2, 6]: 8.18 h
- Vd/F [2, 6]: 233 L
- Tmax ([2]; human, in vivo, oral, single dose 150 mg, 75 mg HME tablet, fasted, N = 6, read-out: tmax): 2 h
- AUC(0-inf) [2, 7]: 13200 ng·h/mL
- Cmax [2, 7]: 4180 ng/mL
- half-life [2, 7]: 9.56 h
- Vd/F [2, 7]: 313 L
- Tmax ([2]; human, in vivo, oral, single dose 300 mg, 75 mg HME tablet, fasted, N = 5, read-out: tmax): 2 h
- AUC(0-inf) [2, 8]: 22400 ng·h/mL
- Cmax [2, 8]: 7500 ng/mL
- half-life [2, 8]: 8.36 h
- Vd/F [2, 8]: 243 L
- Tmax ([2]; human, in vivo, oral, single dose 450 mg, 75 mg HME tablet, fasted, N = 6, read-out: tmax): 1 h
- AUC(0-inf) [2, 9]: 40400 ng·h/mL
- Cmax [2, 9]: 13300 ng/mL
- half-life [2, 9]: 9.12 h
- Vd/F [2, 9]: 293 L
- Tmax ([2]; human, in vivo, oral, single dose 900 mg, 75 mg HME tablet, fasted, N = 6, read-out: tmax): 1 h
- PK linearity ([2]; single ascending doses under fasted conditions): linear PK
- CL/F [2, 10]: 19.7 (46.9) L/hr
- t1/2 [2, 10]: 8.18 h
- CL/F [2, 11]: 22.7 (56.5) L/hr
- t1/2 [2, 11]: 9.56 h
- Tmax [2, 11]: 2.0 (1.0-2.0) hr
- CL/F [2, 12]: 20.1 (62.5) L/hr
- t1/2 [2, 12]: 8.36 h
- Tmax [2, 12]: 1.0 (1.0-2.0) hr
- CL/F [2, 13]: 22.3 (55.8) L/hr
- t1/2 [2, 13]: 9.12 h
- Tmax [2, 13]: 1.0 (1.0-2.0) hr
- exposure (Cmax and AUC) versus dose ([2]; single dose 150 to 900 mg, 75 mg HME tablet, fasted): dose-proportional increase in exposure; also recorded: Exposure increased dose proportionally
- increase of mean AUC0-t and AUC0-∞ with cobicistat co-administration [3, 14]: 3.8 fold
- increase of mean Cmax with cobicistat co-administration [3, 14]: 2.7 fold
- AUC(0-t) ([3]; human, in vivo, oral, 900 mg, Compound I 900 mg single dose alone, Part B, HME, fasted, N = 10, geometric mean (% CV)): 34800 ng·h/mL
- AUC(0-inf) [3, 15]: 35200 ng·h/mL
- Cmax [3, 15]: 11400 ng/mL
- half-life [3, 15]: 8.94 h
- Tmax ([3]; human, in vivo, oral, Compound I 900 mg single dose alone, Part B, HME, fasted, N = 10, median (minimum-maximum)): 2 h
- main cytochrome P450 enzyme responsible for metabolism [4]: CYP3A4
- increase of mean AUC0-t and AUC0-∞ with cobicistat co-administration [5, 16]: 2.6 fold
- increase of mean Cmax with cobicistat co-administration [5, 16]: 1.8 fold
- AUC(0-t) ([5]; human, in vivo, oral, 300 mg, Compound I 300 mg single dose alone, Part B, HME, fasted, N = 8, geometric mean (% CV), read-out: AUC0-24): 15800 ng·h/mL
- AUC(0-t) ([5]; human, in vivo, oral, 300 mg, Compound I 300 mg single dose alone, Part B, HME, fasted, N = 8, geometric mean (% CV), read-out: AUC0-t): 16200 ng·h/mL
- AUC(0-t) ([5]; human, in vivo, oral, 900 mg, Compound I 900 mg single dose alone, Part B, HME, fasted, N = 10, geometric mean (% CV), read-out: AUC0-24): 34100 ng·h/mL
- AUC(0-inf) [5, 17]: 16400 ng·h/mL
- Cmax [5, 17]: 4840 ng/mL
- half-life [5, 17]: 9.96 h
- Tmax ([5]; human, in vivo, oral, Compound I 300 mg single dose alone, Part B, HME, fasted, N = 8, median (minimum-maximum)): 2 h

— patent US11103505B2, “Formulations of a compound modulating kinases” (Plexxikon Inc., priority 2017, dated 2021)
